The test system of one experiment is CNE-2. Description: Cytotoxicity against human CNE2 cells assessed as reduction in cell viability after 3 days by MTT assay. The experiment is classed as functional, cell-based. On the technique in general: Formazan colour is commonly taken as a measure of viable cells.
The subject of the next experiment is CNE. Description: Cytotoxicity against human CNE1 cells assessed as reduction in cell viability after 3 days by MTT assay. In kind it is functional, cell-based.

Active and inactive are the calls of the source. The rule behind the calls is not given here. Bounds are passed on as bounds.

Data on 4 compounds can be found in ChEMBL document CHEMBL4118045, “Vitepyrroloids A-D, 2-Cyanopyrrole-Containing Labdane Diterpenoid Alkaloids from the Leaves of Vitex trifolia” (J Nat Prod, 2017).

The term IC50 denotes the concentration that inhibits the measured activity by half.

Turning to `C[C@@H]1CC[C@H]2C(C)(C)CCC[C@]2(C)[C@@]1(O)CCc1cc[nH]c1C#N`, the half-maximal inhibitory concentration (IC50) in the experiment with CNE-2 (CNE-2, 72 h) was over 10 µM; with CNE (72 h), 8.7 µM.

Consider `CC(=O)O[C@H]1CC[C@@]2(C)[C@@H](CC[C@@H](C)[C@]2(O)CCc2ccn(CCCC(=O)O)c2C#N)C1(C)C`, for which the outcome with CNE-2 and with CNE was inactive.

On to `CCOC(=O)CCCn1ccc(CC[C@@]2(O)[C@H](C)CC[C@H]3C(C)(C)CCC[C@@]32C)c1C#N`, for which the result with CNE-2 and with CNE was inactive.

Turning to `CC(=O)O[C@@H]1C[C@@H](C)[C@](O)(CCc2ccn(CCO)c2C#N)[C@@]2(C)CCCC(C)(C)[C@H]12`, the outcome in the experiment with CNE-2 and in the experiment with CNE was inactive.
